Molecular target: T1, Caspase-3 (Homo sapiens, UniProt P42574)
T1 sequence (P42574 whole entry): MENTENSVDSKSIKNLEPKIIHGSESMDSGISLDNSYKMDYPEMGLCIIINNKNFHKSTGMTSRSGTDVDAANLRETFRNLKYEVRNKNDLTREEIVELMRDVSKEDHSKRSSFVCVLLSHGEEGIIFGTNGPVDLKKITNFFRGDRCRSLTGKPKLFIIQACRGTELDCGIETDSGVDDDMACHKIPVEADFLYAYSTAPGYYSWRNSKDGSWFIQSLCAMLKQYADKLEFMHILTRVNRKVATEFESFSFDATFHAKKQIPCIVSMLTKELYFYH
Experiment: Inhibitory concentration of compound against caspase-3

IC50: 17.7 nM
Compound: COc1ccc(Br)cc1CC(=O)N[C@H](C(=O)N[C@@H](CC(=O)O)C(=O)CSCc1ccccc1)C(C)C

From ChEMBL document CHEMBL1148306, “Reducing the peptidyl features of caspase-3 inhibitors: a structural analysis” (J Med Chem, 2004)
